PubChem BioAssay AID212 (DTP/NCI, 2004)
Where “and” joins values, the source holds several entries; their conditions need not be identical. Equal entries are not always repeated. Results filed as inconclusive are left out.

Test system: BDF1 mice, colon carcinoma 38 sc, T/C %
Test: NCI In Vivo Anticancer Drug Screen. Data for tumor model Colon Carcinoma 38 (subcutaneous) in B6D2F1 (BDF1) mice
Conditions: endpoint: median tumor weight (est.), higher = larger tumour
Outline: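 T/C readout: treated group (T) measurement over vehicle control group (C) measurement. Endpoint is survival or tumor size in mice bearing a transplanted tumor.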

[1] = dose: 12.5 mg/kg/injection, schedule: Q07DX002 (ip), vehicle: saline
[2] = dose: 25.0 mg/kg/injection, schedule: Q07DX002 (ip), vehicle: saline
[3] = dose: 50.0 mg/kg/injection, schedule: Q07DX002 (ip), vehicle: saline
[4] = dose: 200.0 mg/kg/injection, schedule: Q07DX002 (ip), vehicle: saline
[5] = dose: 400.0 mg/kg/injection, schedule: Q07DX002 (ip), vehicle: saline
[6] = dose: 25.0 mg/kg/injection, schedule: Q07DX002 (ip), vehicle: Klucel (hydroxypropylcellulose) (HPC)
[7] = dose: 50.0 mg/kg/injection, schedule: Q07DX002 (ip), vehicle: Klucel (hydroxypropylcellulose) (HPC)
[8] = dose: 12.5 mg/kg/injection, schedule: Q07DX002 (ip), vehicle: saline with Tween-80
[9] = dose: 25.0 mg/kg/injection, schedule: Q07DX002 (ip), vehicle: saline with Tween-80
[10] = dose: 50.0 mg/kg/injection, schedule: Q07DX002 (ip), vehicle: saline with Tween-80
[11] = dose: 3.12 mg/kg/injection, schedule: Q07DX002 (ip), vehicle: saline
[12] = dose: 6.25 mg/kg/injection, schedule: Q07DX002 (ip), vehicle: saline
[13] = dose: 100.0 mg/kg/injection, schedule: Q07DX002 (ip), vehicle: Klucel (hydroxypropylcellulose) (HPC)
[14] = dose: 200.0 mg/kg/injection, schedule: Q07DX002 (ip), vehicle: Klucel (hydroxypropylcellulose) (HPC)

Which T/C (dose: 18.75 mg/kg/injection, schedule: Q07DX002 (ip), vehicle: suspension in saline) does the source give for `COC1C=CC23c4cc5c(cc4C(O)OC2CN(C)C3C1)OCO5` (configuration not stated) here?
The T/C was 91 % of control.

What about the T/C (dose: 37.5 mg/kg/injection, schedule: Q07DX002 (ip), vehicle: suspension in saline) of the same compound?
The T/C was 82 % of control.

What about the T/C (dose: 75.0 mg/kg/injection, schedule: Q07DX002 (ip), vehicle: suspension in saline) of the same compound?
Its T/C is 105 % of control.

For `NC(Cc1ccc(N(CCCl)Cc2ccccc2)cc1)C(=O)O` (configuration not stated), which T/C (dose: 3.12 mg/kg/injection, schedule: Q07DX002 (ip), vehicle: distilled water + Tween-80) is on record?
Its T/C is 69 % of control and 90 % of control.

And the T/C (dose: 6.25 mg/kg/injection, schedule: Q07DX002 (ip), vehicle: distilled water + Tween-80)?
The T/C was 108 % of control.

What about the T/C (dose: 12.5 mg/kg/injection, schedule: Q07DX002 (ip), vehicle: distilled water + Tween-80) of the same compound?
The T/C was 51 % of control and 70 % of control.

And the T/C (dose: 25.0 mg/kg/injection, schedule: Q07DX002 (ip), vehicle: distilled water + Tween-80)?
Its T/C is 109 % of control and 108 % of control.

And the T/C (dose: 50.0 mg/kg/injection, schedule: Q07DX002 (ip), vehicle: distilled water + Tween-80)?
The T/C was 72 % of control and 92 % of control.

With `CC[PH+](CC)CC[S-].CC[PH+](CC)CC[S-].[Au+].[Au+]` as the compound, how does the T/C (dose: 5.0 mg/kg/injection, schedule: Q07DX002 (ip), vehicle: Klucel (hydroxypropylcellulose) (HPC)) read?
Its T/C is 67 % of control.

What about the T/C (dose: 10.0 mg/kg/injection, schedule: Q07DX002 (ip), vehicle: Klucel (hydroxypropylcellulose) (HPC)) of the same compound?
The T/C was 89 % of control.

What about the T/C (dose: 20.0 mg/kg/injection, schedule: Q07DX002 (ip), vehicle: Klucel (hydroxypropylcellulose) (HPC)) of the same compound?
Its T/C is 78 % of control.

And the T/C (dose: 40.0 mg/kg/injection, schedule: Q07DX002 (ip), vehicle: Klucel (hydroxypropylcellulose) (HPC))?
The T/C was 57 % of control.

What does the source list for `COc1ccc(C[C@H](N)C(=O)NC2C(CO)OC(n3cnc4c(N(C)C)ncnc43)C2O)cc1` (some centres not stated)?
T/C [1]: 81 % of control; T/C (dose: 24.0 mg/kg/injection, schedule: Q07DX002 (ip), vehicle: saline): 79 % of control and 91 % of control; T/C [2]: 86 % of control; T/C (dose: 48.0 mg/kg/injection, schedule: Q07DX002 (ip), vehicle: saline): 80 % of control and 82 % of control; T/C [3]: 92 % of control and 106 % of control; T/C (dose: 96.0 mg/kg/injection, schedule: Q07DX002 (ip), vehicle: saline): 91 % of control and 108 % of control; T/C (dose: 100.0 mg/kg/injection, schedule: Q07DX002 (ip), vehicle: saline): 89 % of control and 94 % of control; T/C (dose: 192.0 mg/kg/injection, schedule: Q07DX002 (ip), vehicle: saline): 72 % of control and 93 % of control; T/C [4]: 55 % of control and 64 % of control; T/C (dose: 384.0 mg/kg/injection, schedule: Q07DX002 (ip), vehicle: saline): 64 % of control and 84 % of control; T/C [5]: 21 % of control

`O=NN(CCCl)C(=O)Oc1cc(Cl)c(Cl)cc1Cl` was tested. Which T/C [6] did it give?
Its T/C is 117 % of control.

And the T/C [7]?
Its T/C is 63 % of control.

Which results are given for `CCCCNC(C)C1(O)Cc2c(O)c3c(c(O)c2C(OC2CC(N)C(O)C(C)O2)C1)C(=O)c1c(OC)cccc1C3=O` (configuration not stated)?
T/C (dose: 40.0 mg/kg/injection, schedule: Q07DX002 (ip), vehicle: saline): 95 % of control; T/C (dose: 80.0 mg/kg/injection, schedule: Q07DX002 (ip), vehicle: saline): 101 % of control; T/C (dose: 160.0 mg/kg/injection, schedule: Q07DX002 (ip), vehicle: saline): 116 % of control; T/C (dose: 320.0 mg/kg/injection, schedule: Q07DX002 (ip), vehicle: saline): 47 % of control

With `COCCCNC1=C(C#N)C(=O)NC(c2cccc([N+](=O)[O-])c2)S1` (configuration not stated) as the compound, how does the T/C [8] read?
The T/C was 97 % of control.

What about the T/C [9] of the same compound?
The T/C was 95 % of control.

And the T/C [10]?
Its T/C is 108 % of control.

Which T/C (dose: 18.7 mg/kg/injection, schedule: Q07DX002 (ip), vehicle: saline) does the source give for `O=C[C@@H](CO)O[C@H](C=O)n1cnc2c(=O)[nH]cnc21` here?
Its T/C is 168 % of control.

What about the T/C (dose: 37.5 mg/kg/injection, schedule: Q07DX002 (ip), vehicle: saline) of the same compound?
The T/C was 105 % of control.

And the T/C (dose: 75.0 mg/kg/injection, schedule: Q07DX002 (ip), vehicle: saline)?
Its T/C is 121 % of control.

And the T/C (dose: 150.0 mg/kg/injection, schedule: Q07DX002 (ip), vehicle: saline)?
The T/C was 100 % of control.

What about the T/C (dose: 300.0 mg/kg/injection, schedule: Q07DX002 (ip), vehicle: saline) of the same compound?
The T/C was 120 % of control.

What about the T/C (dose: 600.0 mg/kg/injection, schedule: Q07DX002 (ip), vehicle: saline) of the same compound?
The T/C was 86 % of control.

Which T/C [8] does the source give for `CN1C(=O)C(=Cc2ccc(O)cc2)C(=O)N(C)C1=O` here?
Its T/C is 105 % of control.

And the T/C [9]?
Its T/C is 53 % of control.

What does the source list for `O=c1[nH]c(=O)n(C2OC(CO)C(O)C2O)cc1F` (configuration not stated)?
T/C [11]: 121 % of control; T/C [12]: 106 % of control; T/C [1]: 64 % of control

How did the T/C (dose: 1.0 mg/kg/injection, schedule: Q07DX002 (ip), vehicle: saline) turn out when `Nc1ncnc2c1ncn2C1C=C(CO)C(O)C1O` (configuration not stated) was run?
Its T/C is 74 % of control and 84 % of control.

And the T/C (dose: 2.0 mg/kg/injection, schedule: Q07DX002 (ip), vehicle: saline)?
Its T/C is 93 % of control.

What about the T/C (dose: 8.0 mg/kg/injection, schedule: Q07DX002 (ip), vehicle: saline) of the same compound?
Its T/C is 107 % of control.

What does the source list for `CN(N=O)C(N)=O`?
T/C [11]: 95 % of control; T/C (dose: 6.0 mg/kg/injection, schedule: Q07DX002 (ip), vehicle: saline): 93 % of control; T/C [12]: 99 % of control; T/C (dose: 6.25 mg/kg/injection, schedule: Q07DX002 (ip), vehicle: suspension in saline): 108 % of control; T/C (dose: 12.0 mg/kg/injection, schedule: Q07DX002 (ip), vehicle: saline): 112 % of control; T/C [1]: 78 % of control; T/C (dose: 12.5 mg/kg/injection, schedule: Q07DX002 (ip), vehicle: suspension in saline): 76 % of control; T/C [2]: 43 % of control and 62 % of control; T/C (dose: 25.0 mg/kg/injection, schedule: Q07DX002 (ip), vehicle: suspension in saline): 55 % of control; T/C [3]: 37 % of control; T/C (dose: 50.0 mg/kg/injection, schedule: Q07DX002 (ip), vehicle: suspension in saline): 82 % of control; T/C (dose: 100.0 mg/kg/injection, schedule: Q07DX002 (ip), vehicle: suspension in saline): 84 % of control

How did the T/C (dose: 12.5 mg/kg/injection, schedule: Q07DX003 (ip), vehicle: water) turn out when `Nc1ncnc2c1ncn2C1OC(COP(=O)(O)O)C(O)C1O` (configuration not stated) was run?
The T/C was 79 % of control.

And the T/C (dose: 25.0 mg/kg/injection, schedule: Q07DX003 (ip), vehicle: water)?
Its T/C is 70 % of control.

And the T/C (dose: 50.0 mg/kg/injection, schedule: Q07DX003 (ip), vehicle: water)?
Its T/C is 60 % of control.

What about the T/C (dose: 80.0 mg/kg/injection, schedule: Q07DX002 (ip), vehicle: water) of the same compound?
Its T/C is 81 % of control.

What about the T/C (dose: 100.0 mg/kg/injection, schedule: Q07DX003 (ip), vehicle: water) of the same compound?
The T/C was 95 % of control.

What about the T/C (dose: 160.0 mg/kg/injection, schedule: Q07DX002 (ip), vehicle: water) of the same compound?
Its T/C is 70 % of control.

What about the T/C [4] of the same compound?
Its T/C is 94 % of control.

What about the T/C (dose: 200.0 mg/kg/injection, schedule: Q07DX003 (ip), vehicle: water) of the same compound?
Its T/C is 118 % of control.

What about the T/C (dose: 320.0 mg/kg/injection, schedule: Q07DX002 (ip), vehicle: water) of the same compound?
The T/C was 80 % of control.

And the T/C [5]?
Its T/C is 89 % of control.

And the T/C (dose: 400.0 mg/kg/injection, schedule: Q07DX003 (ip), vehicle: water)?
The T/C was 56 % of control.

What about the T/C (dose: 640.0 mg/kg/injection, schedule: Q07DX002 (ip), vehicle: water) of the same compound?
The T/C was 86 % of control.

And the T/C (dose: 1600.0 mg/kg/injection, schedule: Q07DX002 (ip), vehicle: saline)?
The T/C was 77 % of control.

What about the T/C (dose: 3200.0 mg/kg/injection, schedule: Q07DX002 (ip), vehicle: saline) of the same compound?
Its T/C is 50 % of control.

With `C=C[Si]12OCCN(CCO1)CCO2` as the compound, how does the T/C [6] read?
Its T/C is 73 % of control and 90 % of control.

What about the T/C [13] of the same compound?
The T/C was 29 % of control.

What about the T/C [14] of the same compound?
Its T/C is 93 % of control and 97 % of control.

How did the T/C [2] turn out when `C(CSC1=NCCN1)CSC1=NCCN1` was run?
Its T/C is 112 % of control.

And the T/C [3]?
Its T/C is 96 % of control.

What about the T/C [4] of the same compound?
Its T/C is 120 % of control.

What does the source list for `O=C1OCC2(C(=O)O)C(=O)OCC12` (configuration not stated)?
T/C (dose: 3.12 mg/kg/injection, schedule: Q07DX002 (ip), vehicle: saline with Tween-80): 124 % of control; T/C (dose: 6.25 mg/kg/injection, schedule: Q07DX002 (ip), vehicle: saline with Tween-80): 87 % of control; T/C [9]: 70 % of control and 86 % of control; T/C [10]: 109 % of control; T/C (dose: 400.0 mg/kg/injection, schedule: Q07DX002 (ip), vehicle: saline with Tween-80): 158 % of control

Which T/C [7] does the source give for `O=Cc1ccc(C=O)c(Cl)c1` here?
Its T/C is 107 % of control.

What about the T/C [13] of the same compound?
The T/C was 79 % of control.

And the T/C [14]?
Its T/C is 95 % of control.

What about the T/C (dose: 400.0 mg/kg/injection, schedule: Q07DX002 (ip), vehicle: Klucel (hydroxypropylcellulose) (HPC)) of the same compound?
The T/C was 75 % of control.
